System: 171881-019-R-J1-PDC tumor spheroid viability
Experiment: Anticancer human tumor 171881-019-R-J1-PDC patient-derived invasive breast carcinoma cell line growth inhibition [PI3K]
Details: spheroids with HUVEC and MSC; for IC50: curve of first compound; for viability, T/C: stronger effect = lower value; active = viability on the fitted dose curve at most 10% of control; inactive = the rest
How it was run: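 We assembled tumor spheroids that included a stromal compartment of HUVEC and MSCs, then exposed them to targeted agents alone and together with PI3K pathway inhibitors. Concentration series descended by half-log from clinically achievable Cmax levels. Viability served as the endpoint.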
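Also: spheroids exposed to compound for 7 days before viability read.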
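For viability, T/C in this document: 100% = DMSO vehicle-treated spheroids.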

CC1(C)CCC(CN2CCN(c3ccc(C(=O)NS(=O)(=O)c4ccc(NCC5CCOCC5)c([N+](=O)[O-])c4)c(Oc4cnc5[nH]ccc5c4)c3)CC2)=C(c2ccc(Cl)cc2)C1 + COc1c(OCCCN2CCOCC2)ccc2c3n(c(=NC(=O)c4cnc(N)nc4)nc12)CCN3
< 31.6 nM: IC50 (second compound 0.0316 µM) | IC50 (second compound 0.1 µM) | IC50 (second compound 0.316 µM) | IC50 (second compound 1 µM)
active: viability, T/C (second compound 0.1 µM, first compound 0.0316 µM) 9.62% | viability, T/C (second compound 0.1 µM, first compound 0.1 µM) 8.56% | viability, T/C (second compound 0.1 µM, first compound 0.316 µM) 8.91% | viability, T/C (second compound 0.1 µM, first compound 1 µM) 8.46% | viability, T/C (second compound 0.1 µM, first compound 3.16 µM) 8.91% | viability, T/C (second compound 0.1 µM, first compound 10 µM) 7.62% | viability, T/C (second compound 0.316 µM, first compound 0.0316 µM) 2.51% | viability, T/C (second compound 0.316 µM, first compound 0.1 µM) 1.88% | viability, T/C (second compound 0.316 µM, first compound 0.316 µM) 2.5% | viability, T/C (second compound 0.316 µM, first compound 1 µM) 2.1% | viability, T/C (second compound 0.316 µM, first compound 3.16 µM) 1.72% | viability, T/C (second compound 0.316 µM, first compound 10 µM) 1.63% | viability, T/C (second compound 1 µM, first compound 0.0316 µM) 1.35% | viability, T/C (second compound 1 µM, first compound 0.1 µM) 0.89% | viability, T/C (second compound 1 µM, first compound 0.316 µM) 1.13% | viability, T/C (second compound 1 µM, first compound 1 µM) 0.95% | viability, T/C (second compound 1 µM, first compound 3.16 µM) 1.02% | viability, T/C (second compound 1 µM, first compound 10 µM) 0.92%
> 10000 nM: IC50 (second compound 0.00316 µM)
inactive: viability, T/C (second compound 0.00316 µM, first compound 0.0316 µM) 67.9% | viability, T/C (second compound 0.00316 µM, first compound 0.1 µM) 71.5% | viability, T/C (second compound 0.00316 µM, first compound 0.316 µM) 76.5% | viability, T/C (second compound 0.00316 µM, first compound 1 µM) 75.8% | viability, T/C (second compound 0.00316 µM, first compound 3.16 µM) 50.7% | viability, T/C (second compound 0.00316 µM, first compound 10 µM) 56.9% | viability, T/C (second compound 0.01 µM, first compound 0.0316 µM) 50.3% | viability, T/C (second compound 0.01 µM, first compound 0.1 µM) 54.2% | viability, T/C (second compound 0.01 µM, first compound 0.316 µM) 52.1% | viability, T/C (second compound 0.01 µM, first compound 1 µM) 50.6% | viability, T/C (second compound 0.01 µM, first compound 3.16 µM) 36.4% | viability, T/C (second compound 0.01 µM, first compound 10 µM) 46.5% | viability, T/C (second compound 0.0316 µM, first compound 0.0316 µM) 31.2% | viability, T/C (second compound 0.0316 µM, first compound 0.1 µM) 27.1% | viability, T/C (second compound 0.0316 µM, first compound 0.316 µM) 26.7% | viability, T/C (second compound 0.0316 µM, first compound 1 µM) 31.9% | viability, T/C (second compound 0.0316 µM, first compound 3.16 µM) 27.6% | viability, T/C (second compound 0.0316 µM, first compound 10 µM) 27.7%
1070 nM: IC50 (second compound 0.01 µM)
